Several values for one entry are separate records, joined by “and”; a condition that tells them apart may be missing. Identical values can stand only once. Like-named read-outs stand apart in the source and are kept apart here.
Columns and labels:
HT 1299 = assay: Cell counts, HT 1299; type: cell-based; settings: for cell counts: single wells
Procedure: As a result, LC-50 curves were generated in the 1st week.
In the 2nd plate, 7 d of the 1st week (LC-50) is the same as 0 h of the 2nd week (recovery).
At 0 h of the 2nd week, medium was exchanged with untreated medium for the remainder of the experiment. […] As a result, Recovery curves were generated in the 2nd week.
HT 1299 is a non-small cell lung cancer. The cells have a homozygous partial deletion of the p53 protein, and lack expression of p53 protein.

PC-3 = settings: for The absorbance, Mean value / The absorbance / The absorbance, group - Blank: PC-3, XTT 500 nm; for The absorbance: single wells
Procedure: (§1) Cancer cell lines HCC 1419, MCF-7, MDA-MB-468, SKBR3, PC3, HT1299, Saos-2, C-6, AsPc, MDA-MB-231, RKO, HeLa and TT, and normal cell lines HME 50 HT, BJ and CCD-1074sk were tested for changes in metabolism (XTT assay) and cell death (cell counts).
(§2) Cells were plated into 48-well Corning CellBind™ plates at densities of 20,000 cells for normal cells and 10,000˜20,000 cells for cancer cells. 24 to 48 h after plating, cells were treated with the composition according to the invention at concentrations of 4.5e-2M. The first time point treated with the composition of the invention is 0 h. At 3 days after the first treatment with the composition of the invention, medium was changed and the composition of the invention at the same concentrations were added to the cultured cells.
(§3) The XTT assay is an accepted analysis technique for viability and cytotoxicity of anticancer drugs or other pharmaceutical compositions. Cells were seeded in a 96-well tissue culture plate at a density of 10,000 cells for normal cells and 5,000 cells for cancer cells. After incubation period, the formazan dye formed was quantitated using an ELISA reader. The optimal wavelength used in experiments was 500 nm, and it was measured at 0 h, 12 h, 24 h, 48 h, 4 d and 7 d, respectively. The obtained values were generated using the software SoftMax Pro 4.8.
(§4) The cell viability was calculated according to the manufacturer's instructions as follows (the term “blank” means XTT in medium only):
(§5) Cellular cytotoxicity was calculated according to the manufacturer's instructions as follows: […]

SKBR3 = settings: for The absorbance, Mean value / The absorbance, group - Blank / The absorbance: SKBR3, XTT 500 nm; for The absorbance: single wells
Procedure: as §1, §2, §3, §4, §5

BJ = settings: for The viability / The absorbance, group - Blank / The absorbance, Mean value / The absorbance: BJ; for The absorbance, group - Blank: mean minus blank; for The absorbance: single value; for The cytotoxicity: human, 220 nM
Procedure: as §1, §2, §3, §4, §5

CC(=O)O[C@H]1C(=O)[C@@]2(C)[C@H]([C@H](OC(=O)c3ccccc3)[C@]3(O)C[C@H](OC(=O)[C@H](O)[C@@H](NC(=O)c4ccccc4)c4ccccc4)C(C)=C1C3(C)C)[C@]1(OC(C)=O)CO[C@@H]1C[C@@H]2O [Taxol]
process of cell death (microscopy) (HT 1299): cell membranes were ruptured by toxicity of Taxol, and then nuclei of cells changed into black | cell counts, Mean value (HT 1299; 1st week (LC50), 0 h): 3737 | cell counts, Mean value (HT 1299; 1st week (LC50), 12 h): 3705 | cell counts (HT 1299; 1st week (LC50), 12 h): 2680 and 3085 and 5350 | cell counts, Mean value (HT 1299; 1st week (LC50), 24 h): 3252 | cell counts (HT 1299; 1st week (LC50), 24 h): 2810 and 4255 and 2690 | cell counts, Mean value (HT 1299; 1st week (LC50), 48 h): 1464 | cell counts (HT 1299; 1st week (LC50), 48 h): 1382 and 1526 and 1484 | cell counts (HT 1299; 1st week (LC50), 4 d): 488 and 536 and 712 | cell counts, Mean value (HT 1299; 1st week (LC50), 7 d): 782 | cell counts (HT 1299; 1st week (LC50), 7 d): 982 and 736 | cell counts, Mean value (HT 1299; 2nd week (recovery), 0 h): 919 | cell counts (HT 1299; 2nd week (recovery), 0 h): 1193 and 789 and 776 | cell counts, Mean value (HT 1299; 2nd week (recovery), 24 h): 227 | cell counts, Mean value (HT 1299; 2nd week (recovery), 48 h): 432 | cell counts (HT 1299; 2nd week (recovery), 48 h): 410 and 499 and 386 | cell counts, Mean value (HT 1299; 2nd week (recovery), 4 d): 446 | cell counts (HT 1299; 2nd week (recovery), 4 d): 322 and 545 and 470 | cell counts, Mean value (HT 1299; 2nd week (recovery), 7 d): 118 | cell counts (HT 1299; 2nd week (recovery), 7 d): 104 and 144 and 107 | The absorbance, Mean value (PC-3; 1st week (LC50), 0 h): 0.693 | The absorbance (PC-3; 1st week (LC50), 0 h): 0.7147 and 0.7027 and 0.6625 | The absorbance, Mean value (PC-3; 1st week (LC50), 12 h): 0.567 | The absorbance (PC-3; 1st week (LC50), 12 h): 0.5126 and 0.6101 and 0.5779 | The absorbance, Mean value (PC-3; 1st week (LC50), 24 h): 0.692 | The absorbance, group - Blank (PC-3; 1st week (LC50), 24 h): 0.5326 | The absorbance (PC-3; 1st week (LC50), 24 h): 0.7192 and 0.6542 and 0.7011 | The absorbance, Mean value (PC-3; 1st week (LC50), 48 h): 1.747 | The absorbance, group - Blank (PC-3; 1st week (LC50), 48 h): 1.5885 | The absorbance (PC-3; 1st week (LC50), 48 h): 1.9128 and 1.6455 and 1.6838 | The absorbance, Mean value (PC-3; 1st week (LC50), 4 d): 1.266 | The absorbance, group - Blank (PC-3; 1st week (LC50), 4 d): 1.1072 | The absorbance (PC-3; 1st week (LC50), 4 d): 1.1723 and 1.5491 and 1.0768 | The absorbance, Mean value (PC-3; 2nd week (recovery), 0 h): 0.5354 | The absorbance (PC-3; 2nd week (recovery), 0 h): 0.5937 and 0.5232 and 0.4893 | The absorbance, Mean value (PC-3; 2nd week (recovery), 24 h): 1.6693 | The absorbance, group - Blank (PC-3; 2nd week (recovery), 24 h): 1.5104 | The absorbance (PC-3; 2nd week (recovery), 24 h): 1.3804 and 1.6987 and 1.9288 | The absorbance, Mean value (PC-3; 2nd week (recovery), 48 h): 0.7660 | The absorbance, group - Blank (PC-3; 2nd week (recovery), 48 h): 0.6071 | The absorbance (PC-3; 2nd week (recovery), 48 h): 0.795 and 0.7948 and 0.7081 | The absorbance, Mean value (PC-3; 2nd week (recovery), 4 d): 1.2875 | The absorbance, group - Blank (PC-3; 2nd week (recovery), 4 d): 1.1286 | The cytotoxicity (PC-3; human, 12 h, 220 nM): 0.5920 | The viability (PC-3; human, 12 h, 220 nM): 0.3649 | The absorbance, Mean value (SKBR3; 1st week (LC50), 0 h): 0.3968 | The absorbance, group - Blank (SKBR3; 1st week (LC50), 0 h): 0.2164 | The absorbance (SKBR3; 1st week (LC50), 0 h): 0.4034 and 0.3885 and 0.3985 | The absorbance, Mean value (SKBR3; 1st week (LC50), 12 h): 1.5205 | The absorbance, group - Blank (SKBR3; 1st week (LC50), 12 h): 1.3402 | The absorbance, group - Blank (SKBR3; 1st week (LC50), 24 h): 1.8347 | The absorbance, Mean value (SKBR3; 1st week (LC50), 48 h): 1.6721 | The absorbance, group - Blank (SKBR3; 1st week (LC50), 48 h): 1.4917 | The absorbance (SKBR3; 1st week (LC50), 48 h): 1.6738 and 1.629 and 1.7134 | The absorbance, Mean value (SKBR3; 1st week (LC50), 4 d): 1.1935 | The absorbance (SKBR3; 1st week (LC50), 4 d): 1.2586 and 1.1724 and 1.1494 | The absorbance, Mean value (SKBR3; 1st week (LC50), 7 d): 1.0281 | The absorbance, group - Blank (SKBR3; 1st week (LC50), 7 d): 0.8478 | The absorbance (SKBR3; 1st week (LC50), 7 d): 0.9379 and 0.9708 and 1.1757 | The absorbance, Mean value (SKBR3; 2nd week (recovery), 0 h): 1.0435 | The absorbance, group - Blank (SKBR3; 2nd week (recovery), 0 h): 0.8631 | The absorbance (SKBR3; 2nd week (recovery), 0 h): 1.0568 and 1.0836 and 0.99 | The absorbance, Mean value (SKBR3; 2nd week (recovery), 24 h): 1.1704 | The absorbance, group - Blank (SKBR3; 2nd week (recovery), 24 h): 0.9900 | The absorbance (SKBR3; 2nd week (recovery), 24 h): 1.1654 and 1.3673 and 0.9784 | The absorbance, Mean value (SKBR3; 2nd week (recovery), 48 h): 1.0440 | The absorbance, group - Blank (SKBR3; 2nd week (recovery), 48 h): 0.8636 | The absorbance (SKBR3; 2nd week (recovery), 48 h): 0.9057 and 0.8251 and 1.4012 | The absorbance, Mean value (SKBR3; 2nd week (recovery), 4 d): 1.2517 | The absorbance, group - Blank (SKBR3; 2nd week (recovery), 4 d): 1.0713 | The absorbance (SKBR3; 2nd week (recovery), 4 d): 1.252 and 1.6151 and 0.888 | The absorbance, Mean value (SKBR3; 2nd week (recovery), 7 d): 0.9393 | The absorbance, group - Blank (SKBR3; 2nd week (recovery), 7 d): 0.7590 | The absorbance (SKBR3; 2nd week (recovery), 7 d): 0.7048 and 1.1412 and 0.972 | The cytotoxicity (SKBR3; human, 0 h, 220 nM): −1.4298 | The viability (SKBR3; human, 12 h, 220 nM): 0.7165 | The cytotoxicity (SKBR3; human, 24 h, 220 nM): 0.4771 | The cytotoxicity (SKBR3; human, 48 h, 220 nM): 0.6010 | The viability (BJ; 1st week (LC50), 0 h): 0.6817 | The absorbance, group - Blank (BJ; 1st week (LC50), 0 h): 0.9194 | The absorbance, Mean value (BJ; 1st week (LC50), 0 h): 1.2407 | The absorbance (BJ; 1st week (LC50), 0 h): 1.2557 and 1.2397 and 1.2268 | The viability (BJ; 1st week (LC50), 12 h): 0.3531 | The absorbance, group - Blank (BJ; 1st week (LC50), 12 h): 0.1792 | The absorbance, Mean value (BJ; 1st week (LC50), 12 h): 0.5006 | The absorbance (BJ; 1st week (LC50), 12 h): 0.504 and 0.4951 and 0.5027 | The viability (BJ; 1st week (LC50), 24 h): 0.1484 | The absorbance, group - Blank (BJ; 1st week (LC50), 24 h): 0.1674 | The absorbance, Mean value (BJ; 1st week (LC50), 24 h): 0.4887 | The absorbance (BJ; 1st week (LC50), 24 h): 0.492 and 0.4863 and 0.4879 | The viability (BJ; 1st week (LC50), 48 h): 0.6457 | The absorbance, group - Blank (BJ; 1st week (LC50), 48 h): 1.3032 | The absorbance, Mean value (BJ; 1st week (LC50), 48 h): 1.6245 | The absorbance (BJ; 1st week (LC50), 48 h): 1.6877 and 1.5017 and 1.6842 | The viability (BJ; 1st week (LC50), 4 d): 0.5117 | The absorbance, group - Blank (BJ; 1st week (LC50), 4 d): 1.1564 | The absorbance, Mean value (BJ; 1st week (LC50), 4 d): 1.4777 | The absorbance (BJ; 1st week (LC50), 4 d): 1.4687 and 1.4879 and 1.4766 | The viability (BJ; 1st week (LC50), 7 d): 0.4809 | The absorbance, group - Blank (BJ; 1st week (LC50), 7 d): 1.0576 | The absorbance, Mean value (BJ; 1st week (LC50), 7 d): 1.3790 | The absorbance (BJ; 1st week (LC50), 7 d): 1.3256 and 1.3677 and 1.4436 | The viability (BJ; 2nd week (recovery), 0 h): 0.8858 | The absorbance, group - Blank (BJ; 2nd week (recovery), 0 h): 0.8852 | The absorbance, Mean value (BJ; 2nd week (recovery), 0 h): 1.2065 | The absorbance (BJ; 2nd week (recovery), 0 h): 1.1468 and 1.2843 and 1.1885 | The viability (BJ; 2nd week (recovery), 24 h): 2.1460 | The absorbance, group - Blank (BJ; 2nd week (recovery), 24 h): 1.0893 | The absorbance, Mean value (BJ; 2nd week (recovery), 24 h): 1.4107 | The absorbance (BJ; 2nd week (recovery), 24 h): 1.3211 and 1.5144 and 1.3966 | The viability (BJ; 2nd week (recovery), 48 h): 0.1254 | The absorbance, group - Blank (BJ; 2nd week (recovery), 48 h): 0.1415 | The absorbance, Mean value (BJ; 2nd week (recovery), 48 h): 0.4629 | The absorbance (BJ; 2nd week (recovery), 48 h): 0.451 and 0.4672 and 0.4704 | The viability (BJ; 2nd week (recovery), 4 d): 0.7693 | The absorbance, group - Blank (BJ; 2nd week (recovery), 4 d): 1.5524 | The absorbance, Mean value (BJ; 2nd week (recovery), 4 d): 1.8738 | The absorbance (BJ; 2nd week (recovery), 4 d): 1.8912 and 1.9201 and 1.8101 | The cytotoxicity (BJ; 12 h): 0.6469 | The cytotoxicity (BJ; 7 d): 0.5191

From patent US20120016019A1, “PHARMACEUTICAL COMPOSITION FOR TREATING OR PREVENTING CANCER” (priority 2010, published 2012)
